From patent US20090283473A1, “PLANT MATERIALS EXTRACTION METHOD” (Xylon Biotechnologies Ltd., priority 2002, published 2009)

How the values were obtained:
Assay type in all cases: cell-based
[1] = tested on: Seven species of bacteria and one species of fungus; assay: Disk diffusion assay, whole panel; settings: all bacteria and fungus of the screening
Source text: (§1) Microorganisms: Laboratory strains of bacteria and fungus were obtained from Dr. Neil Towers' and Dr. Jovel's lab, The University of British Columbia. Seven species of bacteria and one species of fungus will be used in the screening process. The bacteria strains consisted of Staphylococcus aureus, methicillin resistant Staphylococcus aureus, Bacillus subtilis and Enterococcus faecalis, Escherichia coli, Pseudomonas aeruginosa, and Salmonella typhimurium. The fungal species was Candida albicans.
(§2) Methods: Disk diffusion assay on agar plates inoculated with the organisms being studies. The plates were divided into quadrants or sixths using a black marking pen. In quadrant 1 and 2, negative and positive controls were run (no treatment and gentamicin). Test compounds were run on the remaining available portions.

Pseudomonas aeruginosa = assay: Disk diffusion assay on agar plates; design: key: “+” active; “−” not active
Source text: as §1, §2

Enterococcus faecalis = assay: Disk diffusion assay on agar plates; design: key: “+” active; “−” not active
Source text: as §1, §2

Candida albicans = assay: Disk diffusion assay on agar plates; design: key: “+” active; “−” not active
Source text: as §1, §2

Molecule: CC1(C)C=CC=C(C(=O)O)C=C1 [Thujic acid standard, Thujic acid]
- anti-microbial activity across the panel (in words) [1]: showed activities against some bacteria and fungus
- Anti-microbial activity P.a (Pseudomonas aeruginosa): −

Molecule: Gentamicin
- anti-microbial activity across the panel (in words) [1]: active against all the tested bacteria but not against C. albicans
- Anti-microbial activity E.f. (Enterococcus faecalis): +
- Anti-microbial activity C.a (Candida albicans): −

Molecule: CC(C)c1cccc(=O)c(O)c1 [Hinokitiol standard, 2,4,6-Cycloheptatrien-1-one,2-hydroxy-4-(1-methylethyl)]
- anti-microbial activity across the panel (in words) [1]: demonstrated activities against all the bacteria and fungus
